Test results: ChEMBL document CHEMBL1136285, “Discovery of a novel potent Na+/Ca2+ exchanger inhibitor: design, synthesis and structure-activity relationships of 3,4-dihydro-2(1H)-quinazolinone derivatives” (Bioorg Med Chem Lett, 2003)

Legend:
[1] = species: Cavia porcellus; assay: Inhibitory activity against Na+/[Ca2+] exchanger after 30 min of K+ free incubation in isolated left atria from guinea pig
[2] = species: Cavia porcellus; assay: Inhibitory activity (1 uM) against Na+/[Ca2+] exchanger after 30 min of K+ free incubation in isolated left atria from guinea pig; assay type: functional
[3] = pKa value was determined; assay type: physicochemical

| Structure (SMILES) | IC30 [1] | Inhibition [2] | pKa [3] |
| --- | --- | --- | --- |
| O=C1Nc2ccccc2C(c2ccccc2)N1C1CCNCC1 (stereo not drawn) | 1100 nM |  |  |
| CC(C)CCCN1C(=O)Nc2ccccc2C1c1ccccc1 (stereo not drawn) | > 10000 nM |  |  |
| O=C1Nc2ccccc2C(c2ccccc2)N1C1CCN(CCc2ccccc2)CC1 (stereo not drawn) | 3600 nM |  |  |
| CCNCCN1C(=O)Nc2ccccc2C1c1ccccc1 (stereo not drawn) | 580 nM |  |  |
| CCOc1ccc(Oc2ccc(OCc3cc(F)ccc3F)cc2)c(N)c1 |  | > 80% |  |
| CCN1CCC(N2C(=O)Nc3ccccc3C2c2ccccc2)CC1 (stereo not drawn) | 53 nM |  |  |
| CCN(CC)CCN1C(=O)Nc2ccccc2C1c1ccccc1 (stereo not drawn) | 69 nM |  | 10.2 |
| CN(C)CCCN1C(S)=Nc2ccccc2C1c1ccccc1 (stereo not drawn) | 3800 nM |  |  |
| CN(C)CCCN1C(=O)Nc2ccccc2C1Cc1ccccc1 (stereo not drawn) | > 10000 nM |  |  |
| CC1c2ccccc2NC(=O)N1CCCN(C)C (stereo not drawn) | 5300 nM |  |  |
| CCN(CC)CCCN1C(=O)Nc2ccccc2C1c1ccccc1 (stereo not drawn) | 40 nM |  |  |
| CCOCCN1C(=O)Nc2ccccc2C1c1ccccc1 (stereo not drawn) | > 10000 nM |  |  |
| CN(C)CCCN1C(=O)Nc2ccccc2C1C1CCCCC1 (stereo not drawn) | 570 nM |  |  |
| CN(C)CCCN1C(=O)Nc2ccccc2C1c1ccccc1 (stereo not drawn) | 350 nM |  |  |
| O=C1Nc2ccccc2C(c2ccccc2)N1C1CCN(Cc2ccccc2)CC1 (stereo not drawn) | 17 nM |  |  |
| CN(C)CCCN1C(=O)Nc2ccc(Cl)cc2C1c1ccco1 (stereo not drawn) | 690 nM |  |  |
| CN(C)CCCN1C(=O)Nc2ccc(Cl)cc2C1c1ccccc1 (stereo not drawn) | 460 nM |  |  |
| CCCN1CCC(N2C(=O)Nc3ccccc3C2c2ccccc2)CC1 (stereo not drawn) | 93 nM |  |  |
| NCCN1C(=O)Nc2ccccc2C1c1ccccc1 (stereo not drawn) | > 10000 nM |  |  |
| CN(C)CCCN1C(=O)Nc2ccccc2C1c1cccs1 (stereo not drawn) | 720 nM |  |  |
| CCN(CC)C(=O)CN1C(=O)Nc2ccccc2C1c1ccccc1 (stereo not drawn) | > 10000 nM |  | -0.58 |
| CN(C)CCCN1C(=O)Nc2ccccc2C1c1ccccn1 (stereo not drawn) | 510 nM |  |  |
| CN(C)CCCN1C(=O)N(C)c2ccc(Cl)cc2C1c1ccccc1 (stereo not drawn) | > 10000 nM |  |  |
| O=C1Nc2ccccc2C(c2ccccc2)N1C1CCN(CC2CCCCC2)CC1 (stereo not drawn) | 4000 nM |  |  |
| CCN(CC)CCCCN1C(=O)Nc2ccccc2C1c1ccccc1 (stereo not drawn) | 1900 nM |  |  |
| CN1CCC(N2C(=O)Nc3ccccc3C2c2ccccc2)CC1 (stereo not drawn) | 87 nM |  |  |
